Values of other authors as cited in patent US20210315865A1 (Biohaven Therapeutics Ltd., priority 2018, published 2021).

Settings: taken with meals

For Nc1nc2ccc(OC(F)(F)F)cc2s1 [riluzole, 6-(trifluoromethoxy)benzothiazol-2-amine], the “food effect on exposure” value is listed as “reduced exposure when taken with meals”.
